From patent publication US20050085441A1, “Use of soluble monovalent oligosaccharides as inhibitors of HIV-1 fusion and replication” (priority 2002, published 2005)

Columns and labels:
[1] = tested on: HIV-1 laboratory strain NL4.3; assay: Syncytia formation in MT-2 cells infected with HIV-1 NL4.3; format: cell-based
[2] = tested on: HIV-1 laboratory strain NL4.3; assay: Viral p24 antigen release, HIV-1 NL4.3 in MT-2 cells; format: cell-based; conditions: for reduction of production of p24: day 7 post-infection; for effect on release of antigen p24: 0.5-50.0 mM tested, concentration not given
[3] = tested on: HIV-1 clinical isolate 1936; assay: Replication of T-tropic clinical isolate 1936 in MT-2 cells (p24 release); format: cell-based
[4] = tested on: HIV-2 isolate CBL23; assay: Replication of HIV-2 clinical isolate CBL23 in MT-2 cells; format: cell-based; conditions: single oligosaccharide
Procedure: The effect of the oligosaccharides was also tested on the replication of CLB23, a T -tropic clinical isolate of HIV-2.

[5] = tested on: HIV-1 T-tropic envelope protein of HXB2; format: cell-based; conditions: virions with HIV HXB2 envelope protein, MT-2 cells
[6] = tested on: vesicular stomatis virus (VSV) G protein; format: cell-based, vesicular stomatitis virus
[7] = tested on: HIV-1 (strain NL4.3); assay: HIV-1 replication in vivo in NOD-SCID huPBL mice (p24, viral load in peritoneal wash)
[8] = tested on: HIV-1 clinical isolate ME46; assay: Replication of T-tropic clinical isolate ME46 in MT-2 cells (p24 release)
Excerpt: MT-2 cells were infected as described above, and the course of infection was followed by the release of p24.

[9] = tested on: HIV-1 M-tropic strain Ba-L; assay: Replication of M-tropic strain Ba-L in human peripheral blood monocytes (p24 release); conditions: 0.5, 5 and 25 mM, MOI 0.001

SMILES	formation of syncytia (number and size) ([1]; 25 mM, MT-2 cells, NL4.3)	size of syncytia (number of nuclei) ([1]; concentrations lower than 25 mM)	release of antigen p24 ([2]; 5 mM or lower)	reduction of production of p24 ([2]; 25 mM globotriose) [fold]	release of antigen p24 ([2]; 25 mM, effect maximum at days 3 and 7, recovered at day 10 post-infection)	inhibition of replication of isolate 1936 ([3]; 5 mM and above)	inhibition of replication of HIV-2 isolate CBL23 [4]	expression of the luciferase reporter [5]	expression of the luciferase reporter [6]	HIV-1 replication (p24 and viral load) ([7]; globotriose 15 mg/mouse i.p. single dose, days 2 and 6 post infection)	HIV-1 replication (p24 and viral load) ([7]; repeat experiment, single dose at beginning of infection, day 6)	inhibition of replication of isolate ME46 ([8]; 5 mM and above)	inhibition of replication of strain Ba-L (p24 release) [9]	effect on release of antigen p24 [2]	effect on formation of syncytia ([1]; 0.5-50.0 mM tested, concentration not given)	reduction of production of p24 ([2]; 5 mM lactose) [fold]	effect on replication of isolate 1936 ([3]; 25 mM)	effect on replication of isolate ME46 ([8]; 15 mM)	inhibition of replication of isolate ME46 ([8]; 25 mM)
OC[C@H]1O[C@H](O[C@@H]2[C@H](O)[C@@H](O)[C@H](O[C@H]3[C@H](O)[C@@H](O)C(O)O[C@@H]3CO)O[C@@H]2CO)[C@H](O)[C@@H](O)[C@H]1O (stereo partly drawn) [globotriose, galactose α1-4galactose β1-4glucose]	completely inhibited	decreased	not at 5 mM or lower	5	inhibited	more than ten-fold	much weaker than for the HIV-1 isolates	inhibited	no effect was observed except for the highest concentration	strongly inhibited	diminished replication	more than ten-fold	did not inhibit						
CC(=O)N[C@H]1[C@H](O[C@H]2[C@@H](O)[C@@H](CO)O[C@@H](O[C@H]3[C@H](O)[C@@H](O)C(O)O[C@@H]3CO)[C@@H]2O)O[C@H](CO)[C@@H](O)[C@@H]1O[C@@H]1O[C@H](CO)[C@H](O)[C@H](O)[C@H]1O (stereo partly shown) [lacto-N-tetraose, reference compound]													ineffective	ineffective					
OC[C@H]1O[C@@H](O[C@H]2[C@H](O)[C@@H](O)[C@H](O)O[C@@H]2CO)[C@H](O)[C@@H](O)[C@H]1O [lactose, o-β-D-galactopyranosyl-(1-4)-β-D-glucopyranose]							basically non-effective	inhibited	no effect was observed				ineffective	less potent than globotriose	weaker than that exhibited by globotriose	2	practically did not affect	minor effect	ten-fold
